US12577597B2, “Transgenic microorganisms and synthesis of piperazic acid, piperazic acid containing products, and derivatives thereof” (Washington University, priority 2017, dated 2026)

Assays:
[1] = test system: Streptomyces flaveolus pzbB (sfaC) deletion mutant; type: cell-based
Description: FIG. 5 is a series of LC/MS spectra showing the detection of sanglifehrin, a Piz—containing compound produced by Streptomyces flaveolus. Four major isobaric isomers of sanglifehrin A detected in WT S. flaveolus fermentation extracts. As expected from the results above, an unmarked gene deletion of pzbB (sfaC) from S. flaveolus abrogates sanglifehrin production.
Data indicating L-Piz successfully penetrates at least one Piz-compound producing actinomycete was obtained, followed by subsequent incorporation into a Piz drug-like compound sanglifehrin (see e.g., FIG. 5). […] Four major isobaric isomers of sanglifehrin A detected in WT S. flaveolus fermentation extracts. As expected from the results in FIG. 5, an unmarked gene deletion of pzbB (sfaC) from S. flaveolus abrogates sanglifehrin production.

SfaC-His6 (PzbB) = experiment: Hemin influence on SfaC (PzbB) N5-OH-L-ornithine in vitro assay, piperazic acid quantified by HPLC/MS; type: biochemical, Streptomyces flaveolus; settings: hemin 10 μM in DMSO vs DMSO alone; SfaC-His6 2 μM; N5-OH-L-orn 1 mM; 50 mM Tris.HCl pH 8.0; aliquots at 30, 60, 90 sec
Chain of SfaC-His6 (PzbB) (as listed by the source): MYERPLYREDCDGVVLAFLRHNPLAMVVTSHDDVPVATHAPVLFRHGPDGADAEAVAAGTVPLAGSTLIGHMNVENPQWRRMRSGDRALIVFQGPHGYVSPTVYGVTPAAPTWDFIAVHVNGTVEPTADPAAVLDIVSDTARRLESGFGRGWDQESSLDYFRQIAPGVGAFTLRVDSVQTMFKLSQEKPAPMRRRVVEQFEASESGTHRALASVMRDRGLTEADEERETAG
Description: As expected for a bona fide cofactor, adding hemin increases the rate of turnover.
100 μL of reaction in 50 mM Tris.HCl at pH 8.0 was set up with N^5—OH-L-orn (1 mM), SfaC-His6 (2 μM), and either hemin in DMSO (10 μM) or just DMSO. The two reactions were incubated at […]. Then, 30 μL aliquots were removed at 30, 60, and 90 sec, and combined with 30 μL 6% 5-sulfosalicylic acid. The cloudy mixture was centrifuged, and the supernatant was used for analysis. Sample was analyzed for piperazic acid by HPLC/MS. Analysis was performed using an lmtakt Intrada Amino Acid column (50×3 mm, 3 μm pore size) installed on an Agilent 1260 Infinity HPLC connected to an Agilent 6420 Triple-Quad mass spectrometer using the following method: T=0, 86% B; T=3, 86% B; T=10, 0% B; T=11, 0% B; T=12, 86% B; T=14, 86% B; A: water+100 mM ammonium formate, B: acetonitrile+0.1% formic acid; 0.6 mL/min. An extracted ion count chromatogram at m/z 131.1 (monoisotopic mass of protonated piperazic acid) was used to detect piperazic acid. For quantification, an SRM transition (m/z 131.1=>56.3; source voltage, 86 V; collision energy, 37 V) was monitored, and a standard curve (second order polynomial, R2=0.9996) was generated between 0.1 μM and 100 μM using a chemically synthesized L-piperazic acid dihydrochloride standard. The concentrations in time were plotted, and fitted to a line. […]

| Compound | toxicity (qualitative) ([1]; 50 μM exogenous L-Piz, S. flaveolus) | cell penetrance ([1]; inferred from restored sanglifehrin production with 50 μM exogenous L-Piz in S. flaveolus) | increase of the slope (rate of reaction, piperazic acid formation) by hemin (SfaC-His6 (PzbB)) [times] |
| --- | --- | --- | --- |
| O=C(O)C1CCCNN1 [L-Piz, L-piperazic acid] | qualitatively nontoxic | cell penetrant | – |
| Fe^+3-protoporphryin IX [Hemin] | – | – | 14.4 |
